According to ChEMBL document CHEMBL1201862, “PubChem BioAssay data set” (2004):
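Cultured in 96-well plates, cells were exposed to test compound for 48 hours across five concentrations. Here, GI50 denotes the concentration required for 50% inhibition of growth.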 Active and inactive are the calls of the source. Cut-off read from the data, not from the text of the source: active = GI50 up to about 1.1 µM and inactive = higher.

Assays:
Test in all cases: NCI-60 cell line screen, 48 h
M14 = tested on: M14
SF-295 = tested on: SF-295
EKVX = tested on: EKVX
SF-268 = tested on: SF-268
UACC-257 = tested on: UACC-257
OVCAR-8 = tested on: OVCAR-8
BT-549 = tested on: BT-549
LOX IMVI = tested on: LOX IMVI
SNB-75 = tested on: SNB-75
HOP-92 = tested on: HOP-92
T47D = tested on: T47D
786-0 = tested on: 786-0
SK-MEL-28 = tested on: SK-MEL-28
IGROV-1 = tested on: IGROV-1
CAKI-1 = tested on: CAKI-1
CCRF-CEM = tested on: CCRF-CEM
UACC-62 = tested on: UACC-62
OVCAR-3 = tested on: OVCAR-3
SN12C = tested on: SN12C
SK-MEL-5 = tested on: SK-MEL-5
UO-31 = tested on: UO-31
NCI/ADR-RES = tested on: NCI/ADR-RES
MOLT-4 = tested on: MOLT-4
MDA-MB-231 = tested on: MDA-MB-231
NCI-H23 = tested on: NCI-H23
SW-620 = tested on: SW-620
A549 = tested on: A549
MDA-MB-435 = tested on: MDA-MB-435
K562 = tested on: K562
NCI-H226 = tested on: NCI-H226
HL-60 = tested on: HL-60
RXF 393 = tested on: RXF 393
SK-MEL-2 = tested on: SK-MEL-2
HT-29 = tested on: HT-29
Hs-578T = tested on: Hs-578T
SK-OV-3 = tested on: SK-OV-3
HCT-15 = tested on: HCT-15
MDA-N = tested on: MDA-N
Malme-3M = tested on: Malme-3M
ACHN = tested on: ACHN
HCT-116 = tested on: HCT-116
NCI-H522 = tested on: NCI-H522
SNB-19 = tested on: SNB-19
MCF7 = tested on: MCF7
KM12 = tested on: KM12
COLO 205 = tested on: COLO 205
HOP-62 = tested on: HOP-62
RPMI-8226 = tested on: RPMI-8226
SF-539 = tested on: SF-539
OVCAR-5 = tested on: OVCAR-5
SR = tested on: SR
PC-3 = tested on: PC-3
TK-10 = tested on: TK-10
NCI-H460 = tested on: NCI-H460
HCC 2998 = tested on: HCC 2998
DU-145 = tested on: DU-145
OVCAR-4 = tested on: OVCAR-4
U-251 = tested on: U-251
A498 = tested on: A498

Measured: GI50

CN(C)CCCCN1CCc2c(n(C)c3ccccc23)C1=O
inactive: M14 18.4 µM | SF-295 25.9 µM | EKVX 36 µM | SF-268 31.3 µM | UACC-257 16.5 µM | OVCAR-8 > 80.4 µM | BT-549 45.4 µM | LOX IMVI 19.4 µM | SNB-75 22.3 µM | HOP-92 42.6 µM | T47D 25.5 µM | 786-0 33.5 µM | SK-MEL-28 16.7 µM | IGROV-1 57.9 µM | CAKI-1 29.6 µM | CCRF-CEM 63.2 µM | UACC-62 17.3 µM | OVCAR-3 > 81.3 µM | SN12C 42 µM | SK-MEL-5 17.7 µM | UO-31 30.9 µM | NCI/ADR-RES > 67.8 µM | MOLT-4 50.6 µM | MDA-MB-231 29.5 µM | NCI-H23 54.2 µM | SW-620 27.4 µM | A549 50.6 µM | MDA-MB-435 18.5 µM | K562 26.2 µM | NCI-H226 > 59.7 µM | HL-60 51.4 µM | RXF 393 42.1 µM | SK-MEL-2 20 µM | HT-29 18.7 µM | Hs-578T 33 µM | SK-OV-3 > 63.7 µM | MDA-N 19.3 µM | Malme-3M 19.2 µM | ACHN 72.1 µM | HCT-116 22.4 µM | NCI-H522 33.3 µM | SNB-19 > 74 µM | MCF7 36.6 µM | KM12 44.4 µM | COLO 205 18.1 µM | HOP-62 38.7 µM
27.9 µM: HCT-15

Cc1c2ccccc2cc2cccc[n+]12
> 100 µM: HCT-15
inactive: SF-295 34.8 µM | EKVX 4.72 µM | RPMI-8226 18.7 µM | SF-268 10.4 µM | UACC-257 19.2 µM | OVCAR-8 31.6 µM | BT-549 23.4 µM | SF-539 32.1 µM | LOX IMVI 27.8 µM | SNB-75 21.9 µM | OVCAR-5 56.6 µM | SR 12.6 µM | 786-0 61.8 µM | PC-3 30 µM | SK-MEL-28 25.7 µM | IGROV-1 26.1 µM | TK-10 39.8 µM | CCRF-CEM 31.9 µM | UACC-62 41.7 µM | OVCAR-3 24.4 µM | SN12C 29.6 µM | SK-MEL-5 27.4 µM | UO-31 10.6 µM | NCI/ADR-RES > 100 µM | MOLT-4 13 µM | MDA-MB-231 37.7 µM | NCI-H23 18.2 µM | SW-620 8.34 µM | A549 6.82 µM | NCI-H460 35.2 µM | MDA-MB-435 36 µM | K562 10.4 µM | HL-60 29.3 µM | RXF 393 23.3 µM | SK-MEL-2 41.3 µM | HT-29 29.2 µM | Hs-578T 25.6 µM | HCC 2998 15.2 µM | DU-145 61.4 µM | MDA-N 37.8 µM | Malme-3M 11.3 µM | ACHN 62.1 µM | HCT-116 37.2 µM | NCI-H522 12.9 µM | SNB-19 28.6 µM | MCF7 57.7 µM | KM12 6.52 µM | COLO 205 19.8 µM | HOP-62 21.6 µM

C=CCn1c(=O)c(-c2ccccc2)c(O)c2ccccc21
inactive: SF-295 > 100 µM | EKVX > 100 µM | RPMI-8226 > 100 µM | SF-268 > 100 µM | UACC-257 > 100 µM | OVCAR-8 > 100 µM | BT-549 > 100 µM | SF-539 > 100 µM | LOX IMVI > 100 µM | SNB-75 94 µM | HOP-92 > 100 µM | OVCAR-5 > 100 µM | SR > 100 µM | 786-0 > 100 µM | PC-3 > 100 µM | SK-MEL-28 > 100 µM | IGROV-1 > 100 µM | CAKI-1 > 100 µM | TK-10 > 100 µM | CCRF-CEM > 100 µM | OVCAR-4 > 100 µM | OVCAR-3 > 100 µM | SN12C > 100 µM | SK-MEL-5 > 100 µM | UO-31 > 100 µM | NCI/ADR-RES > 100 µM | MOLT-4 > 100 µM | MDA-MB-231 > 100 µM | NCI-H23 > 100 µM | SW-620 > 100 µM | A549 > 100 µM | NCI-H460 > 100 µM | MDA-MB-435 > 100 µM | K562 > 100 µM | U-251 > 100 µM | NCI-H226 > 100 µM | HL-60 > 100 µM | A498 > 100 µM | RXF 393 > 100 µM | HT-29 > 100 µM | Hs-578T > 100 µM | HCC 2998 > 100 µM | DU-145 > 100 µM | MDA-N > 100 µM | Malme-3M > 100 µM | ACHN > 100 µM | HCT-116 > 100 µM | NCI-H522 > 100 µM | SNB-19 > 100 µM | MCF7 > 100 µM | KM12 > 100 µM | COLO 205 > 100 µM | HOP-62 > 100 µM
> 100 µM: HCT-15
